For 16 molecules, IC50 results are on record in patent publication US20100311714A1, “1H-IMIDAZO[4,5-c]QUINOLINONE COMPOUNDS” (priority 2009, published 2010).

For the first assay, the system named is S6 Ribosomal Protein phosphorylation Ser235/236 in TSC1 null mouse embryo fibroblast (MEF) cells. The assay is described as follows: Reverse protein array, S6 Ribosomal Protein phosphorylation in TSC1 null MEF cells. Conditions: 1 h, TSC1-/- MEFs, 60 minutes, read-out: p-S6. In kind it is cell-based. The essentials:
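Phospho-S6 (Ser235/236) was quantified by reverse protein array of cell lysates with a phospho-specific primary antibody. […]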
Regarding `CNC(=O)c1ccc(-c2ccc3ncc4c(c3c2)n(-c2cccnc2C)c(=O)n4C)cc1` [Example 2.4, N-Methyl-4-[3-methyl-1-(2-methyl-pyridin-3-yl)-2-oxo-2,3-dihydro-1H-imidazo[4,5-c]quinolin-8-yl]-benzamide], the IC50 was 23.1 nM.

Still in this assay, the particulars now being: 1 h, TSC1-/- MEFs, 60 minutes, read-out: p-S6 IC50.
With `COCc1ncc(-c2ccc3ncc4c(c3c2)n(-c2cccnc2C)c(=O)n4C)cc1OC` [Example 2.30, 8-(5-Methoxy-6-methoxymethyl-pyridin-3-yl)-3-methyl-1-(2-methyl-pyridin-3-yl)-1,3-dihydro-imidazo[4,5-c]quinolin-2-one], the IC50 was found to be 34 nM.
With `Cc1nc(F)ccc1-n1c(=O)n(C)c2cnc3ccc(-c4cncc(N5CCC5)c4)cc3c21` [Example 7.6, 8-(5-Azetidin-1-yl-pyridin-3-yl)-1-(6-fluoro-2-methyl-pyridin-3-yl)-3-methyl-1,3-dihydro-imidazo[4,5-c]quinolin-2-one], the IC50 is 7 nM.
Still for that read-out and setting: the value for `COCc1ncc(-c2ccc3ncc4c(c3c2)n(-c2ccc(F)nc2C)c(=O)n4C)cc1OC` [Example 7.7, 1-(6-Fluoro-2-methyl-pyridin-3-yl)-8-(5-methoxy-6-methoxymethyl-pyridin-3-yl)-3-methyl-1,3-dihydro-imidazo[4,5-c]quinolin-2-one] was 113 nM; that for `COc1cc(-c2ccc3ncc4c(c3c2)n(-c2ccc(F)nc2C)c(=O)n4C)cnc1CO` [Example 7.10, 1-(6-Fluoro-2-methyl-pyridin-3-yl)-8-(6-hydroxymethyl-5-methoxy-pyridin-3-yl)-3-methyl-1,3-dihydro-imidazo[4,5-c]quinolin-2-one] was 15 nM.
In the case of `COc1ccc(-n2c(=O)n(C)c3cnc4ccc(-c5cncc(N6CCC6)c5)cc4c32)c(OC)n1` [Example 8.11, 8-(5-Azetidin-1-yl-pyridin-3-yl)-1-(2,6-dimethoxy-pyridin-3-yl)-3-methyl-1,3-dihydro-imidazo[4,5-c]quinolin-2-one], the IC50 amounted to 1 nM.
Same read-out and setting: the value for `COc1ccc(-n2c(=O)n(C)c3cnc4ccc(-c5cnc(C(OC)OC)c(OC)c5)cc4c32)c(OC)n1` [Example 8.13, 8-(6-Dimethoxymethyl-5-methoxy-pyridin-3-yl)-1-(2,6-dimethoxy-pyridin-3-yl)-3-methyl-1,3-dihydro-imidazo[4,5-c]quinolin-2-one] was 15 nM; that for `COc1cc(-c2ccc3ncc4c(c3c2)n(-c2ccc(N3CCCC3)nc2C)c(=O)n4C)cnc1CO` [Example 25.4, 8-(6-Hydroxymethyl-5-methoxy-pyridin-3-yl)-3-methyl-1-(2-methyl-6-pyrrolidin-1-yl-pyridin-3-yl)-1,3-dihydro-imidazo[4,5-c]quinolin-2-one] was 7 nM.
With `Cc1nc(N2CCC(O)C2)ccc1-n1c(=O)n(C)c2cnc3ccc(-c4cncc(C(C)(C)O)c4)cc3c21` (stereo not shown) [Example 27.5, 8-[5-(1-Hydroxy-1-methyl-ethyl)-pyridin-3-yl]-1-[6-(3-hydroxy-pyrrolidin-1-yl)-2-methyl-pyridin-3-yl]-3-methyl-1,3-dihydro-imidazo[4,5-c]quinolin-2-one], the IC50 turned out to be 33 nM.
Same read-out and setting: the value for `CNc1ncc(-c2ccc3ncc4c(c3c2)n(-c2ccc(N3CCC(OC)C3)nc2C)c(=O)n4C)cn1` (stereo not shown) [Example 28.2, 1-[6-(3-Methoxy-pyrrolidin-1-yl)-2-methyl-pyridin-3-yl]-3-methyl-8-(2-methylamino-pyrimidin-5-yl)-1,3-dihydro-imidazo[4,5-c]quinolin-2-one] was 1 nM; that for `COc1cc(-c2ccc3ncc4c(c3c2)n(-c2ccc(N3CCC(OC)C3)nc2C)c(=O)n4C)cnc1CO` (stereo not shown) [Example 28.3, 8-(6-Hydroxymethyl-5-methoxy-pyridin-3-yl)-1-[6-(3-methoxy-pyrrolidin-1-yl)-2-methyl-pyridin-3-yl]-3-methyl-1,3-dihydro-imidazo[4,5-c]quinolin-2-one] was 8 nM; that for `Cc1nc(N2CC(O)C2)ccc1-n1c(=O)n(C)c2cnc3ccc(-c4cncc(C(C)(C)O)c4)cc3c21` [Example 29.1, 1-[6-(3-Hydroxy-azetidin-1-yl)-2-methyl-pyridin-3-yl]-8-[5-(1-hydroxy-1-methyl-ethyl)-pyridin-3-yl]-3-methyl-1,3-dihydro-imidazo[4,5-c]quinolin-2-one] was 15 nM.
Turning to `CNc1ncc(-c2ccc3ncc4c(c3c2)n(-c2ccc(N3CC[C@H](O)C3)nc2C)c(=O)n4C)cc1Cl` [Example 32.4, 8-(5-Chloro-6-methylamino-pyridin-3-yl)-1-[6-((S)-3-hydroxy-pyrrolidin-1-yl)-2-methyl-pyridin-3-yl]-3-methyl-1,3-dihydro-imidazo[4,5-c]quinolin-2-one], the IC50 came to 4 nM.
Take `COc1cc(-c2ccc3ncc4c(c3c2)n(-c2ccc(N3CC[C@H](O)C3)nc2C)c(=O)n4C)cnc1CO` [Example 32.7, 8-(6-Hydroxymethyl-5-methoxy-pyridin-3-yl)-1-[6-((S)-3-hydroxy-pyrrolidin-1-yl)-2-methyl-pyridin-3-yl]-3-methyl-1,3-dihydro-imidazo[4,5-c]quinolin-2-one]: the IC50 came to 21.4 nM.
In the case of `CNc1ncc(-c2ccc3ncc4c(c3c2)n(-c2ccc(N3CC[C@@H](O)C3)nc2C)c(=O)n4C)cn1` [Example 34.1, 1-[6-((R)-3-Hydroxy-pyrrolidin-1-yl)-2-methyl-pyridin-3-yl]-3-methyl-8-(2-methylamino-pyrimidin-5-yl)-1,3-dihydro-imidazo[4,5-c]quinolin-2-one], the IC50 was 3 nM.
Still for that read-out and setting: the value for `CCNc1cc(-c2ccc3ncc4c(c3c2)n(-c2ccc(N3CC(F)(F)C(F)(F)C3)nc2C)c(=O)n4C)cnc1CO` [Example 35.2, 8-(5-Ethylamino-6-hydroxymethyl-pyridin-3-yl)-3-methyl-1-[2-methyl-6-(3,3,4,4-tetrafluoro-pyrrolidin-1-yl)-pyridin-3-yl]-1,3-dihydro-imidazo[4,5-c]quinolin-2-one] was 1 nM.
